Reference: patent US5849777A, “Cell differentiation induction with mevalonate and mevalonolactone derivatives” (University of New Mexico, priority 1995, dated 1998)

Key:
[1] = target: T1, rat liver HMG-COA reductase (Rattus norvegicus, UniProt P51639); experiment: inhibition of rat liver HMG-CoA reductase activity; format: biochemical; conditions: read-out: IC50 (concentration for 50% inhibition of rat liver HMG-COA reductase activity); Table I
T1 construct: rat liver HMG-COA reductase activity; from tissue; host or cells: rat liver
T1 sequence (P51639 1-887): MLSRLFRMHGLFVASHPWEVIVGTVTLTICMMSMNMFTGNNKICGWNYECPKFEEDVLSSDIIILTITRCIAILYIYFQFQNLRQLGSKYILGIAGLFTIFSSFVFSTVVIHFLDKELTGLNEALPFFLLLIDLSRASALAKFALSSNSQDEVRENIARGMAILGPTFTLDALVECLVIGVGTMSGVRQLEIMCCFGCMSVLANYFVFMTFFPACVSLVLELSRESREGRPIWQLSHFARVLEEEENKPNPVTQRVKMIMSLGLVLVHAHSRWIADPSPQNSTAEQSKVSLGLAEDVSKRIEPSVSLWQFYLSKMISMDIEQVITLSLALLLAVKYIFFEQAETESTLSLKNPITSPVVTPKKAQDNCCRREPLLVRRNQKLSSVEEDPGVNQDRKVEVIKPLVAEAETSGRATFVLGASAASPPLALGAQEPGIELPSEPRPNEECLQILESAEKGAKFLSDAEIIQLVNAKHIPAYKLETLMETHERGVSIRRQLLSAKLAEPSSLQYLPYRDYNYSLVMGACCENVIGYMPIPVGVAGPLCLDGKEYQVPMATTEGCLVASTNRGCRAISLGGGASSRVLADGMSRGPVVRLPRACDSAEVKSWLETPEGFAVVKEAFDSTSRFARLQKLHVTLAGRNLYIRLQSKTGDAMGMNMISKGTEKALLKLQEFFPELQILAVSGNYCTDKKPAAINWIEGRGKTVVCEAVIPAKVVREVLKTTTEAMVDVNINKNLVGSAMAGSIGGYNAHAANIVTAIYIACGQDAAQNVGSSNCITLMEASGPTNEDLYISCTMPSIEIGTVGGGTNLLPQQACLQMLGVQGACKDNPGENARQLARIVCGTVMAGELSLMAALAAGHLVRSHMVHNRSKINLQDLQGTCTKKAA
Description: While a number of the compounds of the Formula I are known HMG-CoA reductase inhibitors, there is no apparent correlation between HMG-CoA reductase inhibitory activity and promotion of differentiation activity according to the invention. […] Accordingly, useful guidelines for selecting compounds having optimal differentiation-promoting activity according to the invention broadly comprise selecting compounds of the Formula I having the specified stereochemical configuration and an in vitro immunological activity as set forth in the in vitro assay of Example II, of at least about 3-fold.

[2] = system: Human peripheral blood leukocytes; experiment: IgG production by human peripheral blood leukocytes (HPBL) in vitro; format: cell-based; conditions: for immune enhancement (in words): Examples II and Table I
Method: Human peripheral blood leukocytes were cultured in a standard tissue culture medium. Aliquots of these cultured cells (1,000,000 cells/ml medium) were cultured for 6 hours, and the specified amount of Formula II compound was added; the cells were then cultured for an additional 90 hours. Sheep red blood cells (SRBC) conditioned with class-specific (IgG) goat anti-human antiserum (1:400) for 2 hours; then guinea pig complement (2%) for 2 hours were conjugated to Protein A as described in detail in Radioimaging and Radioimmunotherapy, Eds. S. W. Burchiel and B. A. Rhodes, Elsevier Science Publishing; New York, 1983, pp. 125-127, incorporated herein by reference.
1. Concentration inhibiting nonspecific IgG production below normal production.

Canine glioma cells [3] = experiment: cytotoxicity as simple survival (T50%); format: cell-based; conditions: Canis lupus familiaris, Glioma cell, read-out: T 50%
Method: (§1) Cytotoxicity was determined as a function of simple survival (T50 %), adherence (ADH50 %) and thymidine incorporation (I50%) of the cells.
(§2) Estimates of the 50% inhibitory concentrations of the various drugs tested on simple survival (T50%) and adherence (ADH50%) for canine glioma cells.

Canine glioma cells [4] = experiment: inhibition of adherence (ADH50%); format: cell-based; conditions: Canis lupus familiaris, Glioma cell
Method: as §1, §2

Canine glioma cells [5] = experiment: inhibition of thymidine incorporation (I50%); format: cell-based; conditions: Canis lupus familiaris, Glioma cell, read-out: I50%
Method: as §1
Estimates of the I50% of the various drugs tested on thymidine incorporation of canine glioma cells in culture.

With CC(C)c1nc(-c2ccccc2)n(-c2ccc(F)cc2)c1/C=C/[C@@H](O)C[C@H](O)CC(=O)O [IIb] the IC50 [1] was 1.35 µM and the “Inhibitory Concentration (concentration inhibiting nonspecific IgG production below normal production)” value ([2]; HPBL, additional 90 h culture) was “none found”.

For CC(C)c1nc(-c2ccccc2)n(-c2ccc(F)cc2)c1/C=C/[C@@H](O)C[C@@H](O)CC(=O)O [IId, reference compound], the activation at 0.1 µM ([2]; Homo sapiens, Leukocyte, 90 h, 100 nM, read-out: Stimulation of IgG Production) was 320%.

Compound CC[C@H](C)C(=O)O[C@H]1CCC=C2C=C[C@H](C)[C@H](CC[C@@H]3C[C@@H](O)CC(=O)O3)[C@H]21 [compactin, reference compound] has an IC50 (Canine glioma cells [3]; 24 h exposure) of 0.5 µM, an IC50 (Canine glioma cells [3]; 72 h exposure) of 0.2 µM and an IC50 (Canine glioma cells [3]; 96 h exposure) of 0.35 µM. The “immune enhancement (in words)” value [2] was “no immune enhancement”, the IC50 (Canine glioma cells [4]; 24 h exposure) was 0.05 µM and the IC50 (Canine glioma cells [4]; 72 h exposure) was 0.075 µM. The IC50 (Canine glioma cells [4]; 96 h exposure) was 0.075 µM, the IC50 (Canine glioma cells [5]; 24 h exposure) was 0.1 µM and the IC50 (Canine glioma cells [5]; 48 h exposure) was 0.075 µM. For the same compound, the IC50 (Canine glioma cells [5]; 72 h exposure) was 0.03 µM and the IC50 (Canine glioma cells [5]; 96 h exposure) was 0.05 µM.

With CC[C@H](C)C(=O)O[C@H]1C[C@@H](C)C=C2C=C[C@H](C)[C@H](CC[C@@H]3C[C@@H](O)CC(=O)O3)[C@H]21 [lovastatin, reference compound] the “immune enhancement (in words)” value [2] was “no immune enhancement”.
